In ChEMBL document CHEMBL5214905 (J Med Chem, 2021):
The source made the active and inactive calls. No cut-off for these calls is given here.

How the values were obtained:
[1] = Volume of distribution at steady state in Sprague-Dawley rat plasma at 100 mg/kg, iv measured after 0.083 to 24 hrs by HPLC analysis; format: ADME, organism-based; details: time 0.083-24 hrs, read-out: Vdss
Mus musculus [2] = experiment: In vivo antiinflammatory activity in MPTP induced C57BL/6J mouse neurodegenerative model assessed as decrease in TNF-alpha expression treated with MPTP for 7 days followed by compound administration at 30 mg/kg, po by Western blotting analysis; format: functional, organism-based
MDR1 [3] = experiment: Permeability in MDCKII expressing MDR1 cells across apical to basolateral side by measuring ratio of the final amount of the compound in donor and receiver chambers to the initial amount of the compound in the donor chamber relative to control; format: ADME, cell-based, Canis lupus familiaris, MDCK-II; details: dog, MDCK-MDR1
BCRP [4] = experiment: Permeability in human Caco-2 expressing BCRP cells across basolateral to apical side by measuring ratio of the final amount of the compound in donor and receiver chambers to the initial amount of the compound in the donor chamber relative to control; format: ADME, cell-based
[5] = Unbound fraction in mouse plasma by LC-MS/MS analysis relative to control; format: ADME
[6] = Oral bioavailability in Sprague-Dawley rat plasma by measuring dose-corrected area under the curve (AUC) oral divided by AUC intravenous at 100 mg/kg measured after 0.083 to 24 hrs by HPLC analysis relative to control; format: ADME, organism-based; details: time 0.083-24 hrs
BCRP [7] = experiment: Apparent permeability in human Caco-2 expressing BCRP cells across basolateral to apical side; format: ADME, cell-based; details: read-out: permeability
Mus musculus [8] = experiment: Neuroprotective activity in MPTP induced neurodegenerative C57BL/6J mouse model assessed as decrease in tryptophan metabolite NFK in mouse striatum treated with MPTP for 7 days followed by compound administration at 30 mg/kg, po by LC-MS/MS analysis; format: functional, organism-based
[9] = Toxicity in MPTP induced C57BL/6J mouse neurodegenerative model assessed as no change in body weight treated with MPTP for 7 days followed by compound administration at 10 to 100 mg/kg, po measured upto 32 days; format: organism-based; details: in vivo, 768 h, dose 10-100 mg/kg, time < 32 day
[10] = Plasma protein binding in Kunming mouse assessed as binding rate by LC-MS/MS analysis relative to control; format: ADME; details: read-out: PPB (converted)
[11] = Clearance in Sprague-Dawley rat plasma at 100 mg/kg, po measured after 0.083 to 24 hrs by HPLC analysis; format: ADME, organism-based; details: time 0.083-24 hrs
MDR1 [12] = experiment: Efflux ratio of apparent permeability across basolateral to apical side to apical to basolateral side in MDCKII expressing MDR1 cells; format: ADME, cell-based, Canis lupus familiaris, MDCK-II; details: dog, MDCK-MDR1
Mus musculus [13] = experiment: Neuroprotective activity in MPTP induced C57BL/6J mouse neurodegenerative model assessed as decrease in Iba-1 expression in positive neuron cells in brain striatum treated with MPTP for 7 days followed by compound administration at 30 mg/kg, po by IHC staining method; format: functional, organism-based
[14] = Unbound fraction in mouse brain by LC-MS/MS analysis relative to control; format: ADME, tissue-based
BCRP [15] = experiment: Permeability in human Caco-2 expressing BCRP cells across apical to basolateral side by measuring ratio of the final amount of the compound in donor and receiver chambers to the initial amount of the compound in the donor chamber relative to control; format: ADME, cell-based
[16] = Toxicity in MPTP induced C57BL/6J mouse neurodegenerative model assessed as no change in heart weight treated with MPTP for 7 days followed by compound administration at 10 to 30 mg/kg, po measured upto 32 days; format: organism-based; details: in vivo, 768 h, dose 10-30 mg/kg, time < 32 day
Mus musculus [17] = experiment: Neuroprotective activity in MPTP induced C57BL/6J mouse neurodegenerative model assessed as normal cell morphology in neuron cells treated with MPTP for 7 days followed by compound administration at 30 mg/kg, po by IHC staining method; format: functional, organism-based
[18] = target: Indoleamine 2,3-dioxygenase 1 (Homo sapiens, UniProt P14902); experiment: Inhibition of IDO1 in IFN-gamma induced overexpressing human HeLa cells; format: cell-based
[19] = target: T1, Tryptophan 2,3-dioxygenase (Homo sapiens, UniProt P48775); experiment: Inhibition of TDO in overexpressing human A-172 cells; format: cell-based
MDR1 [20] = experiment: Permeability in MDCKII expressing MDR1 cells across basolateral to apical side by measuring ratio of the final amount of the compound in donor and receiver chambers to the initial amount of the compound in the donor chamber relative to control; format: ADME, cell-based, Canis lupus familiaris, MDCK-II; details: dog, MDCK-MDR1
BCRP [21] = experiment: Efflux ratio of apparent permeability across basolateral to apical side to apical to basolateral side in human Caco-2 expressing BCRP cells in presence of novobiocin; format: ADME, cell-based; details: Caco-2, with novobiocin (concentration not stated)
BCRP [22] = experiment: Apparent permeability in human Caco-2 expressing BCRP cells across apical to basolateral side in presence of novobiocin; format: ADME, cell-based; details: Caco-2, with novobiocin (concentration not stated), read-out: permeability
BCRP [23] = experiment: Efflux ratio of apparent permeability across basolateral to apical side to apical to basolateral side in human Caco-2 expressing BCRP cells; format: ADME, cell-based
[24] = Cmax in Sprague-Dawley rat plasma at 100 mg/kg, po measured after 0.083 to 24 hrs by HPLC analysis; format: ADME, organism-based; parameters: time lower 0.083 hrs, dose 100 mg/kg, time upper 24 hrs, route po
[25] = AUC (0 to 12 hrs) in Sprague-Dawley rat plasma at 100 mg/kg, iv measured after 0.083 to 24 hrs by HPLC analysis; format: ADME, organism-based; parameters: dose 100 mg/kg, time 0.083-24 hrs, route iv
[26] = Ratio of drug concentration in total brain to total plasma in Kunming mouse assessed as blood brain barrier permeability measured at 0.5 to 12 hrs by HPLC analysis; details: time 0.5-12 hrs
[27] = target: T1, Tryptophan 2,3-dioxygenase; experiment: Inhibition of TDO in overexpressing human SW48 cells; format: cell-based
[28] = target: T1, Tryptophan 2,3-dioxygenase
Description: Inhibition of human TDO (19 to 388 aa) expressed in Escherichia coli Transetta (DE3) by nanodrop 2000c spectrophotometric analysis

[29] = AUC (0 to infinity) in Sprague-Dawley rat plasma at 100 mg/kg, po measured after 0.083 to 24 hrs by HPLC analysis; format: ADME, organism-based; parameters: time 0.083-24 hrs, dose 100 mg/kg, route po
[30] = Tmax in Sprague-Dawley rat plasma at 100 mg/kg, po measured after 0.083 to 24 hrs by HPLC analysis; format: ADME, organism-based; details: time 0.083-24 hrs
[31] = AUC (0 to infinity) in Sprague-Dawley rat plasma at 100 mg/kg, iv measured after 0.083 to 24 hrs by HPLC analysis; format: ADME, organism-based; parameters: time lower 0.083 hrs, dose 100 mg/kg, time upper 24 hrs, route iv
MDR1 [32] = experiment: Apparent permeability in MDCKII expressing MDR1 cells across apical to basolateral side; format: ADME, cell-based, Canis lupus familiaris, MDCK-II; details: dog, MDCK-MDR1; read-out: permeability
[33] = Half life in Sprague-Dawley rat plasma at 100 mg/kg, po by HPLC analysis; format: ADME, organism-based
Mus musculus [34] = experiment: Neuroprotective activity in MPTP induced C57BL/6J mouse neurodegenerative model assessed as no change in IDO1 expression in brain striatum treated with MPTP for 7 days followed by compound administration at 30 mg/kg, po by Western blotting analysis; format: functional, organism-based
Mus musculus [35] = experiment: Neuroprotective activity in MPTP induced neurodegenerative C57BL/6J mouse model assessed as decrease in tryptophan metabolite NFK in mouse substantia nigra treated with MPTP for 7 days followed by compound administration at 30 mg/kg, po by LC-MS/MS analysis; format: functional, organism-based

T1 sequence (P48775 whole entry): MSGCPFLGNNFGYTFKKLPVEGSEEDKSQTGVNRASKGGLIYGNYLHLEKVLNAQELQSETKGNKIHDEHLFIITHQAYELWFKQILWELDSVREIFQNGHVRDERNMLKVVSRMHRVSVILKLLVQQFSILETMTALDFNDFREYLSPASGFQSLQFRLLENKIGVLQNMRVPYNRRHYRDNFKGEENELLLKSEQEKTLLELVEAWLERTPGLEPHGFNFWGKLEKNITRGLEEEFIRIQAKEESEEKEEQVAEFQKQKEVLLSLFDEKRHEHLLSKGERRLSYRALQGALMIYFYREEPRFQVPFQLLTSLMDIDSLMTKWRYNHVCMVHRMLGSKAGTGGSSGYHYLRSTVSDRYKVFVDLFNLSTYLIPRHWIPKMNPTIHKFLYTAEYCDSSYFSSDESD
Indoleamine 2,3-dioxygenase 1, sequence (P14902 whole entry): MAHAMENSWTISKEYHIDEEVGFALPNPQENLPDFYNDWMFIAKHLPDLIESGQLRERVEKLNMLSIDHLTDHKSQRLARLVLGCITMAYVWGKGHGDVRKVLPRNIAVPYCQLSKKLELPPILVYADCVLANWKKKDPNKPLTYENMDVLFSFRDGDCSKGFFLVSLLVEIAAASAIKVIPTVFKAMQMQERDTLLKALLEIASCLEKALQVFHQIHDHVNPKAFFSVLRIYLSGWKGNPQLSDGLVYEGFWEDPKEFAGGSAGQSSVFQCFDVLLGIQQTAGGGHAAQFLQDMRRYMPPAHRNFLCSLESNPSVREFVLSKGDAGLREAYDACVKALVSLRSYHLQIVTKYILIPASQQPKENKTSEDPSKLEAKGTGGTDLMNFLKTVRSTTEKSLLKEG

Vd [1]: 28.1 L/kg | recovery (MDR1 [3]): 55.1% | recovery (BCRP [4]): 74.5% | Fu [5]: 0.73% | bioavailability [6]: 73.2% | Papp B→A (BCRP [7]): 10.4 ×10⁻⁶ cm/s | fraction unbound [10]: 0.0073 | CL/F [11]: 69.7 mL/min/kg | efflux ratio (MDR1 [12]): 0.77 | Fu [14]: 0.25% | recovery (BCRP [15]): 42.2% | EC50 [18]: 5500 nM | EC50 [19]: 3030 nM | recovery (MDR1 [20]): 81.9% | efflux ratio (BCRP [21]): 0.51 | Papp A→B (BCRP [22]): 19.4 ×10⁻⁶ cm/s | efflux ratio (BCRP [23]): 0.56 | Cmax [24]: 6870 ng/mL | AUC(0-t) [25]: 30300 ng·h/mL | Ratio [26]: 0.81% | EC50 [27]: 1070 nM | IC50 [28]: 40 nM | AUC(0-inf) [29]: 26600 ng·h/mL | Tmax [30]: 0.42 h | AUC(0-inf) [31]: 43800 ng·h/mL | Papp A→B (MDR1 [32]): 13.5 ×10⁻⁶ cm/s | half-life [33]: 4.27 h
Structure (SMILES): O[C@@H]1CCCC[C@H]1CNc1cc(Br)cc2[nH]ncc12
Activity (Mus musculus [2]): Active | Activity (Mus musculus [8]): Active | Activity [9]: Non-Toxic | Activity (Mus musculus [13]): Active | Activity [16]: Non-Toxic | Activity (Mus musculus [17]): Active | Activity (Mus musculus [34]): Active | Activity (Mus musculus [35]): Active
